How the values were obtained:
NK-YS (IL-2 2.5 ng/mL) [1] = experiment: drug sensitivity score (DSS) (DSS units); higher = more sensitive; extreme values may be limits of the assay; conditions: 72 h
[2] = system: normal primary NK cells, pool 2 (3 donors) (IL-2 2.5 ng/mL); experiment: as above; conditions: 72 h
[3] = system: normal primary NK cells, pool 3 (3 donors) (IL-2 2.5 ng/mL); experiment: as above; conditions: 72 h
KAI3 (IL-2 2.5 ng/mL) [4] = experiment: as above; conditions: 72 h
YT (IL-2 2.5 ng/mL) [5] = experiment: as above; conditions: 72 h
NKL (IL-2 2.5 ng/mL) [6] = experiment: as above; conditions: 72 h
NK-92 (IL-2 2.5 ng/mL) [7] = experiment: as above; conditions: 72 h
SNK-6 (IL-2 2.5 ng/mL) [8] = experiment: as above; conditions: 72 h
IMC-1 (IL-2 20 ng/mL) [9] = experiment: as above; conditions: 72 h
DERL-7 (IL-2 2.5 ng/mL) [10] = experiment: as above; conditions: 72 h
KHYG-1 (IL-2 2.5 ng/mL) [11] = experiment: as above; conditions: 72 h
[12] = system: normal primary NK cells, pool 1 (3 donors) (IL-2 2.5 ng/mL); experiment: as above; conditions: 72 h
[13] = system: normal primary NK cells, pool 1 (3 donors), resting (IL-2 0 ng/mL); experiment: as above; conditions: 72 h
NK-YS (IL-2 2.5 ng/mL) [14] = experiment: percent inhibition of viability; higher = more inhibition; conditions: 72 h
[15] = system: normal primary NK cells, pool 2 (3 donors) (IL-2 2.5 ng/mL); experiment: as above; conditions: 72 h
[16] = system: normal primary NK cells, pool 3 (3 donors) (IL-2 2.5 ng/mL); experiment: as above; conditions: 72 h
KAI3 (IL-2 2.5 ng/mL) [17] = experiment: as above; conditions: 72 h
YT (IL-2 2.5 ng/mL) [18] = experiment: as above; conditions: 72 h
NKL (IL-2 2.5 ng/mL) [19] = experiment: as above; conditions: 72 h
NK-92 (IL-2 2.5 ng/mL) [20] = experiment: as above; conditions: 72 h
SNK-6 (IL-2 2.5 ng/mL) [21] = experiment: as above; conditions: 72 h
IMC-1 (IL-2 20 ng/mL) [22] = experiment: as above; conditions: 72 h
DERL-7 (IL-2 2.5 ng/mL) [23] = experiment: as above; conditions: 72 h
KHYG-1 (IL-2 2.5 ng/mL) [24] = experiment: as above; conditions: 72 h
[25] = system: normal primary NK cells, pool 1 (3 donors) (IL-2 2.5 ng/mL); experiment: as above; conditions: 72 h
[26] = system: normal primary NK cells, pool 1 (3 donors), resting (IL-2 0 ng/mL); experiment: as above; conditions: 72 h
[27] = system: normal NK cells expanded with K562-aAPC; experiment: drug sensitivity score (DSS) (DSS units); higher = more sensitive; extreme values may be limits of the assay; conditions: 72 h; IL-2 2.5 ng/mL
Experimental: (§1)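 Drug sensitivity and resistance testing on K562-aAPC-expanded normal NK cells: 5 concentrations (10-fold steps over a 10,000-fold range), 72 h at 37 °C, viability by CellTiter-Glo normalised to DMSO and benzethonium chloride controls; DSS from the fitted curve.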

[28] = system: normal NK cells expanded with K562-aAPC; experiment: percent inhibition of viability; higher = more inhibition; conditions: 72 h, IL-2 2.5 ng/mL
Experimental: as §1

O=c1sn(-c2cccc3ccccc23)c(=O)n1Cc1ccccc1 [Tideglusib] (max concentration tested 3000 nM)
Conditions | drug sensitivity score
DERL-7 (IL-2 2.5 ng/mL) [10] | 0
IMC-1 (IL-2 20 ng/mL) [9] | 0.12
KAI3 (IL-2 2.5 ng/mL) [4] | 1.59
KHYG-1 (IL-2 2.5 ng/mL) [11] | 0
NK-92 (IL-2 2.5 ng/mL) [7] | 0
NK-YS (IL-2 2.5 ng/mL) [1] | 0
NKL (IL-2 2.5 ng/mL) [6] | 0.46
SNK-6 (IL-2 2.5 ng/mL) [8] | 0
YT (IL-2 2.5 ng/mL) [5] | 0.04
[2] | 0
[3] | 0
[12] | 0.12
[13] | 4.87
[27] | 0

percent inhibition of viability [%]
Conditions | 0.3 nM | 3 nM | 30 nM | 300 nM | 3000 nM
DERL-7 (IL-2 2.5 ng/mL) [23] | 0.33 | 8.56 | 5.78 | 9.73 | -4.19
IMC-1 (IL-2 20 ng/mL) [22] | -9.15 | -4.57 | -3.56 | -1.74 | 14.2
KAI3 (IL-2 2.5 ng/mL) [17] | 4.52 | 0.51 | -8.06 | 2.48 | 28.9
KHYG-1 (IL-2 2.5 ng/mL) [24] | 0.24 | -8.35 | -8.09 | -2.62 | 8.61
NK-92 (IL-2 2.5 ng/mL) [20] | -5 | -12.7 | -13.7 | -11.8 | -1.4
NK-YS (IL-2 2.5 ng/mL) [14] | -1.28 | -6.26 | -8.67 | -1.58 | 10.1
NKL (IL-2 2.5 ng/mL) [19] | -0.96 | -13.4 | -11.3 | 4.69 | 13.7
SNK-6 (IL-2 2.5 ng/mL) [21] | -1.78 | 4.09 | -8.27 | 7.39 | 0.93
YT (IL-2 2.5 ng/mL) [18] | 0.91 | -5.07 | -4.89 | -0.66 | 12.1
[15] | -9.87 | -9.74 | -4.05 | -1.59 | 6.8
[16] | -6.37 | -9.25 | 6.54 | 6.09 | 5.7
[25] | -1.89 | -5.16 | 15.6 | 9.54 | 6.41
[26] | 2.26 | 8.84 | 16.1 | 20.2 | 27.7
[28] | -6.95 | -7.17 | -3.75 | -3.95 | 10.8
